Experimental data taken from patent US12024707B2, “Methods and compositions for modulating lncRNAs and methods of treatment based on lncRNA expression” (Washington University, priority 2020, dated 2024).
Structures can show the parent of a compound that is named as a salt.

Test system: HT29 RAMS11 overexpressing cells
Assay: High-throughput viability assay (resazurin), 119 FDA-approved anticancer drugs, RAMS11 overexpressing cells (Clone1, Clone2)
Details: 72 h, vs empty vector control
[1] = OE1 (RAMS11 overexpression clone 1), 0.1 uM drug
[2] = OE1 (RAMS11 overexpression clone 1), 1 uM drug
[3] = OE1 (RAMS11 overexpression clone 1), 10 uM drug
[4] = OE2 (RAMS11 overexpression clone 2), 0.1 uM drug
[5] = OE2 (RAMS11 overexpression clone 2), 1 uM drug
[6] = OE2 (RAMS11 overexpression clone 2), 10 uM drug

Structure (SMILES)	Viability Fold Change [1]	Viability Fold Change [2]	Viability Fold Change [3]	Viability Fold Change [4]	Viability Fold Change [5]	Viability Fold Change [6]
CC[C@H](Nc1ncnc2[nH]cnc12)c1nc2cccc(F)c2c(=O)n1-c1ccccc1 [Idelalisib]	0.9092	0.8875	0.9111	0.9773	0.8852	0.8746
O=P1(NCCCl)OCCCN1CCCl (stereo not drawn) [Ifosfamide]	0.9167	1.025	0.9724	0.9226	1.055	1.058
CC(C)Cn1cnc2c(N)nc3ccccc3c21 [Imiquimod]	1.048	1.101	1.03	1.037	1.138	0.9752
CCc1c2c(nc3ccc(OC(=O)N4CCC(N5CCCCC5)CC4)cc13)-c1cc3c(c(=O)n1C2)COC(=O)[C@]3(O)CC [Irinotecan HCl]	0.9198	0.9608	1.151	0.9682	0.9711	1.068
C/C(=C\c1csc(C)n1)[C@@H]1C[C@@H]2O[C@]2(C)CCC[C@H](C)[C@H](O)[C@@H](C)C(=O)C(C)(C)[C@@H](O)CC(=O)N1 [Ixabepilone]	1.657	1.943	1.722	1.773	2.017	2.056
CS(=O)(=O)CCNCc1ccc(-c2ccc3ncnc(Nc4ccc(OCc5cccc(F)c5)c(Cl)c4)c3c2)o1 [Lapatinib]	1.034	1.269	1.357	1.216	1.285	1.391
Nc1cccc2c1CN(C1CCC(=O)NC1=O)C2=O (stereo not drawn) [Lenalidomide]	0.9659	1.021	0.9664	0.9115	1.009	0.8902
N#Cc1ccc(C(c2ccc(C#N)cc2)n2cncn2)cc1 [Letrozole]	0.9923	0.9536	0.9791	0.9454	1.057	0.8412
O=NN(CCCl)C(=O)NC1CCCCC1 [Lomustine]	0.9969	1.03	1.027	0.991	1.111	0.9646
CC(=O)O[C@]1(C(C)=O)CC[C@H]2[C@@H]3C=C(C)C4=CC(=O)CC[C@]4(C)[C@H]3CC[C@@]21C [Megestrol acetate]	0.8922	1.034	0.9961	0.8949	0.9578	0.9016
N[C@@H](Cc1ccc(N(CCCl)CCCl)cc1)C(=O)O [Melphalan]	0.9214	1.006	0.9782	0.9479	1.068	0.9942
S=c1nc[nH]c2nc[nH]c12 [Mercaptopurine]	0.964	0.9982	1.006	0.9412	1.029	1.05
CN(Cc1cnc2nc(N)nc(N)c2n1)c1ccc(C(=O)N[C@@H](CCC(=O)O)C(=O)O)cc1 [Methotrexate]	0.9199	0.5578	1.197	0.9143	0.5752	1.137
COc1c2occc2cc2ccc(=O)oc12 [Methoxsalen]	0.9521	0.971	0.7883	0.8888	0.9485	0.9406
CO[C@@]12[C@H](COC(N)=O)C3=C(C(=O)C(C)=C(N)C3=O)N1C[C@@H]1N[C@@H]12 [Mitomycin]	0.9668	1.547	2.416	1.006	1.624	2.004
Clc1ccc(C(c2ccccc2Cl)C(Cl)Cl)cc1 (stereo not drawn) [Mitotane]	0.8185	0.9667	0.9105	0.9482	0.9714	0.987
O=C1c2c(O)ccc(O)c2C(=O)c2c(NCCNCCO)ccc(NCCNCCO)c21 [Mitoxantrone]	1.145	1.451	1.375	1.105	1.432	1.508
COc1nc(N)nc2c1ncn2[C@@H]1O[C@H](CO)[C@@H](O)[C@@H]1O [Nelarabine]	0.9819	1.033	0.9555	0.9462	1.007	0.9701
Cc1cn(-c2cc(NC(=O)c3ccc(C)c(Nc4nccc(-c5cccnc5)n4)c3)cc(C(F)(F)F)c2)cn1 [Nilotinib]	0.8679	0.749	0.7379	1.013	0.888	0.7462
O=C(c1cc(Cc2n[nH]c(=O)c3ccccc23)ccc1F)N1CCN(C(=O)C2CC2)CC1 [Olaparib]	0.8162	0.9061	1	0.9035	0.952	0.9733
COC(=O)C[C@](O)(CCCC(C)(C)O)C(=O)O[C@@H]1C(OC)=C[C@]23CCCN2CCc2cc4c(cc2[C@H]13)OCO4 [Omacetaxine mepesuccinate]	1.354	1.614	1.606	1.376	1.468	1.436
CC(=O)O[C@H]1C(=O)[C@@]2(C)[C@H]([C@H](OC(=O)c3ccccc3)[C@]3(O)C[C@H](OC(=O)[C@H](O)[C@@H](NC(=O)c4ccccc4)c4ccccc4)C(C)=C1C3(C)C)[C@]1(OC(C)=O)CO[C@@H]1C[C@@H]2O [Paclitaxel]	2.775	3.5	3.241	2.662	3.065	3.061
Cc1ccc(Nc2nccc(N(C)c3ccc4c(C)n(C)nc4c3)n2)cc1S(N)(=O)=O [Pazopanib hydrochloride]	0.8743	0.7793	0.8633	0.9409	0.9056	0.9152
Nc1nc2[nH]cc(CCc3ccc(C(=O)N[C@@H](CCC(=O)O)C(=O)O)cc3)c2c(=O)[nH]1 [Pemetrexed disodium salt]	0.9118	0.9424	1.886	0.9953	0.9455	1.933
